Assay results taken from ChEMBL document CHEMBL5108037, “Cyclic Peptide Screening Methods for Preclinical Drug Discovery” (J Med Chem, 2022).
Starred links: 1 amine or outer side, 2 acyl side, 3 side chain; linkers in the order of their positions; H or OH if unused. Positions of bridges follow the written chain, without caps; N, C: chain ends. Non-standard residues stand in square brackets, D forms with d. Residues, ends and D or L forms follow the SMILES beside them. X2 = CC1CCN(C[C@H](N[*:1])C(=O)[*:2])CC1; X3 = NC(=O)CNC[C@H](CSCC(=O)[*:1])N[*:2]; CH2CH2 = C(C[*:2])[*:1]

Columns and labels:
[1] = Inhibition of NDM-1 (unknown origin); parameters: species or system Bacteria
[2] = Binding affinity to Carbonic anhydrase (unknown origin) assessed as dissociation constant by isothermal titration calorimetry; parameters: species or system Homo sapiens
[3] = target: T1, Kelch-like ECH-associated protein 1 (Homo sapiens, UniProt Q14145); experiment: Binding affinity to Keap1 (unknown origin) assessed as dissociation constant by calorimetric analysis
T1 sequence (Q14145 whole entry): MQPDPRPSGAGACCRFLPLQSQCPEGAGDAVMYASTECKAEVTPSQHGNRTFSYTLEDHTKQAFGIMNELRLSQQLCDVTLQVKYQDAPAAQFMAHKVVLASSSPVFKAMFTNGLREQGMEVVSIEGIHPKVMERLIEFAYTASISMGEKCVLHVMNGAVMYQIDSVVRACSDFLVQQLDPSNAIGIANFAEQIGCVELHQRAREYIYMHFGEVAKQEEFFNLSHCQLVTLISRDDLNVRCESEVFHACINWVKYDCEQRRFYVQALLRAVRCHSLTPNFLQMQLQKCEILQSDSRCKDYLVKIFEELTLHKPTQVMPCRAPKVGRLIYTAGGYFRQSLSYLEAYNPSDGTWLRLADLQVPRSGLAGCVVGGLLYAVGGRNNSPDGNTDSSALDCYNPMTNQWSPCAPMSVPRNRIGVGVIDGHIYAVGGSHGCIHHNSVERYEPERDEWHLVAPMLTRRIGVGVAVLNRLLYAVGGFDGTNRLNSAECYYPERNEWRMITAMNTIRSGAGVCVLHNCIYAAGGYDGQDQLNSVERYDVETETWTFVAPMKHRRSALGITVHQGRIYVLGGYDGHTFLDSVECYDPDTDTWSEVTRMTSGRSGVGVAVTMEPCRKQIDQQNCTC

[4] = target: T1, Kelch-like ECH-associated protein 1; experiment: Inhibition of Keap1 (unknown origin) by ELISA analysis
[5] = target: GTPase KRas (Homo sapiens, UniProt P01116, G12D); experiment: Inhibition of human His-Avi-TEV-tagged KRAS G12D mutant expressed in Escherichia coli BL21(DE3) by TR-FRET assay
Chain of GTPase KRas (P01116 whole entry G12D): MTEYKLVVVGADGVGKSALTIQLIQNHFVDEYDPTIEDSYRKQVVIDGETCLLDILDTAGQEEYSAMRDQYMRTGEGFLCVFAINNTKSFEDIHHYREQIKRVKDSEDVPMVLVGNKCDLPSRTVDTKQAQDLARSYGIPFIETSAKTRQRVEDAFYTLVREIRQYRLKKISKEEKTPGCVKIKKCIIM

[6] = target: Sonic hedgehog protein (Homo sapiens, UniProt Q15465); experiment: Binding affinity to SHH (unknown origin) assessed as dissociation constant by calorimetric analysis
Chain of Sonic hedgehog protein (Q15465 24-197 limits assumed): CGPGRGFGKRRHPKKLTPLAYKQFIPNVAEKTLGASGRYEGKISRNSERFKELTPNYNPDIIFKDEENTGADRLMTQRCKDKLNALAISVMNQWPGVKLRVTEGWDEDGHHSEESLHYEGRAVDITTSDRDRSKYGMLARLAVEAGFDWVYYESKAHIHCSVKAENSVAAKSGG

[7] = Inhibition of TEV protease using Cy5-ENLYFQGK(QSY21)-NH2 as substrate incubated for 1 hr by fluorescence based analysis; parameters: species or system Tobacco etch virus
[8] = Inhibition of HIF-1alpha / HIF-1beta (unknown origin) protein-protein interaction by ELISA assay; parameters: species or system Homo sapiens
[9] = Inhibition of recombinant His-tagged HIF-1 expressed in human U2OS cells measured after 90 mins by ELISA assay; format: cell-based
[10] = Antiproliferative activity against human LNCaP-abl cells assessed as cell growth inhibition measured after 24 hrs by CellTiter-Glo assay; format: functional, cell-based
[11] = Antiproliferative activity against human LNCaP-95 cells assessed as cell growth inhibition measured after 24 hrs by CellTiter-Glo assay; format: functional, cell-based; conditions: LNCaP-95, 24 h
[12] = Inhibition of FphF (unknown origin) using Cy5-ENLYFQGK(QSY21)-NH2 as substrate incubated for 1 hr by fluorescence based analysis; parameters: species or system Homo sapiens

For `CC[C@H](C)[C@@H]1NC(=O)[C@@H]2CCCN2C(=O)[C@H](CC(=O)O)NC(=O)[C@H](CCCNC(=N)N)NC(=O)[C@H](CCCNC(=N)N)NC(=O)[C@H](CC(C)C)NC(=O)[C@H](CS)NC(=O)[C@@H]2CCCN2C1=O` (cyclo(CLRRDPIP)), the IC50 [1] was 1200 nM.

Work on `NNc1ccc(S(N)(=O)=O)cc1` yielded a Kd [2] of 50000 nM.

For `C[C@@H](O)[C@@H]1NC(=O)[C@H](CCC(=O)O)NC(=O)[C@H](CO)NC(=O)[C@H](CC(=O)O)NC(=O)[C@@H](N)Cc2ccc(cc2)OCCSC[C@@H](C(=O)O)NC(=O)[C@H](CCC(=O)O)NC(=O)CNC1=O` (H-YDSETGEC-OH; linker 1-8 via CH2CH2), the Kd [3] was 110 nM and the IC50 [4] was 2.8 nM.

With `CC1CCN(C[C@@H]2NC(=O)[C@H](CCCNC(=N)N)NC(=O)[C@H](Cc3ccccc3)NC(=O)[C@H](CC(N)=O)NC(=O)[C@H](CCCNC(=N)N)NC(=O)[C@H](Cc3ccccc3)NC(=O)[C@H](CC(N)=O)NC(=O)[C@H](C(C)C)NC(=O)[C@H](Cc3ccccc3)NC(=O)[C@H](Cc3ccc(O)cc3)NC(=O)CSC[C@@H](CNCC(N)=O)NC(=O)[C@H](CCCNC(=N)N)NC(=O)[C@H](Cc3ccccc3)NC2=O)CC1` (YFVNFRNFR[X2]FR; linker N-C via X3) the IC50 [5] was 800 nM.

With `CSCC[C@@H]1NC(=O)[C@H](C)NC(=O)[C@H](CCC(=O)O)NC(=O)[C@@H](NC(=O)[C@@H]2CCCN2C(=O)[C@H](CO)NC(=O)[C@H](CO)NC(=O)CN)Cc2ccc(cc2)OCCSC[C@@H](C(=O)N[C@H](C(=O)N[C@@H](CC(=O)O)C(=O)N[C@H](C(=O)NCC(=O)O)[C@@H](C)O)[C@@H](C)O)NC(=O)[C@H](CCSC)NC(=O)[C@H](CC(=O)O)NC1=O` (H-GSSPYEAMDMCTDTG-OH; linker 5-11 via CH2CH2) the Kd [6] was 550 nM.

`C[C@@H](CS)C(=O)N1CCC[C@@H]1C(=O)O` showed an IC50 [1] of 59700 nM.

In the case of `CSCC[C@@H]1NC(=O)[C@H](Cc2ccc(O)cc2)NC(=O)[C@@H](NC(=O)[C@H](C)N)CSC/C(=N\OCC(=O)NC/C=C/S(C)(=O)=O)CSC[C@@H](C(=O)NCC(=O)O)NC(=O)[C@H](CC(C)C)NC(=O)[C@H](Cc2ccc(O)cc2)NC(=O)[C@H](CC(C)C)NC(=O)[C@@H]2CCCN2C(=O)[C@H](CCC(=O)O)NC(=O)[C@H](CCC(N)=O)NC1=O`, the IC50 [7] is reported as 730 nM.

In the case of `CC(C)C[C@@H]1NC(=O)[C@H](CS)NC(=O)[C@H](Cc2ccc(O)cc2)NC(=O)[C@H](C(C)C)NC(=O)[C@H](Cc2ccccc2)NC(=O)[C@H](CC(C)C)NC1=O`, the IC50 [8] is reported as 1300 nM and the IC50 [9] is reported as 19000 nM.

With `COc1ccc([C@H](C)N2CC(=O)N(CCCOC(C)C)CC(=O)N(c3cc(OC)cc(OC)c3)CC(=O)N(CCc3ccccc3Oc3ccccc3)CC(=O)N[C@H](C)C(=O)N([C@@H](C)c3ccc(OC)cc3)CC2=O)cc1` the IC50 [10] was 195 nM and the IC50 [11] was 782 nM.

For `CSCC[C@@H]1NC(=O)[C@H](Cc2c[nH]c3ccccc23)NC(=O)[C@H](CCCNC(=N)N)NC(=O)[C@H](Cc2c[nH]c3ccccc23)NC(=O)[C@H](CCCNC(=N)N)NC(=O)[C@H](C)NC(=O)[C@@H](NC(=O)[C@@H](N)C(C)C)CSC/C(=N/OCC(=O)CP(=O)(Oc2ccccc2)Oc2ccccc2)CSC[C@@H](C(=O)NCC(=O)O)NC(=O)[C@@H]2CCCN2C1=O`, the IC50 [12] was 647 nM.

In the case of `COc1ccc([C@H](C)N(CC(=O)N(CCCOC(C)C)CC(=O)N(CC(=O)N(CCc2ccccc2Oc2ccccc2)CC(=O)O)c2cc(OC)cc(OC)c2)C(=O)CN(C(=O)[C@@H](C)N)[C@@H](C)c2ccc(OC)cc2)cc1`, the IC50 [10] is reported as 7100 nM and the IC50 [11] is reported as greater than 20000 nM.
